From patent publication EP0044212B1, “Herbicidal o-alkylsulfonyloxy- and o-alkylsulfonylamino-benzenesulfonamides” (E.I. DU PONT DE NEMOURS AND COMPANY, priority 1980, dated 1982)

What was measured:
[1] = test system: Grasses; experiment: Test C pre-emergence on Fallsington silt loam soil; type: in vivo, johnsongrass, barnyardgrass, crabgrass, giant foxtail; settings: 28 days
Source text: (§1) The high herbicidal activity of two of the compounds from within the scope of the invention is evident from the results obtained in this test. The experiment concerned pre-emergence applications on soil. The containers used were 25 cm diameter plastic pots filled with Fallsington silt loam. One set of pots was planted to weeds, the seeds of which were uniformly mixed with the top 1.2 cm layer of soil. The species selected were: johnsongrass (Sorghum halepense), barnyardgrass (Echinochloa crusgalli), crabgrass (Digitaria sanguinalis), giant foxtail (Setaria faberii), velvetleaf (Abutilon theophrasti), jimsonweed (Datura stramonium), mustard (Brassica arvensis), and pigweed (Amaranthus retroflexus). Another set of pots were planted to the following crops with from one to four species per pot: corn (planting depth 3.7 cm), cotton, soybeans, sunflower, Clinton oats, wheat, Black Valentine beans, rice, sorghum, peas, flax, and peanuts (all at 2.5 cm depth), cucumbers, cabbage, alfalfa, safflower, sugarbeets, tomato, spinach, barley, and Kentucky bluegrass (all at 1.2 cm depth). Immediately after planting, the test chemical was applied to the soil surfaces dissolved in a non-phytotoxic solvent. One pot from the weed phase and one of each of the crop species were left untreated for the purpose of comparison. The treated and untreated pots were promptly watered with approximatley 4 mm of simultated rainfall and then held in a greenhouse for several weeks. Visual weed and crop response ratings were made 28 days after treatment utilizing the rating system as described above for Test A. The data are given in Table C.

[2] = test system: Bean; experiment: Test C pre-emergence on Fallsington silt loam soil; type: in vivo, Black Valentine beans; settings: 0.03 kg/ha, 28 days
Source text: as §1, with “The treated and untreated pots were promptly watered with approximatley 4 mm of simultated rainfall and then held in a greenhouse for several weeks. Visual weed and crop response ratings were made 28 days after treatment utilizing the rating system as described above for Test A. The data are given in Table C.” left out

[3] = test system: Flax; experiment: Test C pre-emergence on Fallsington silt loam soil; type: in vivo; settings: 0.03 kg/ha, 28 days
Source text: as §1

[4] = test system: Wheat; experiment: Test C pre-emergence on Fallsington silt loam soil; type: in vivo; settings: 0.03 kg/ha, 28 days
Source text: as §1

[5] = test system: Rice; experiment: Test C pre-emergence on Fallsington silt loam soil; type: in vivo; settings: 0.03 kg/ha, 28 days
Source text: as §1

[6] = test system: Barley; experiment: Test C pre-emergence on Fallsington silt loam soil; type: in vivo; settings: 0.03 kg/ha, 28 days
Source text: as §1

[7] = test system: Tomato; experiment: Test C pre-emergence on Fallsington silt loam soil; type: in vivo; settings: 0.03 kg/ha, 28 days
Source text: as §1

[8] = test system: Sunflower; experiment: Test C pre-emergence on Fallsington silt loam soil; type: in vivo; settings: 0.03 kg/ha, 28 days
Source text: as §1

[9] = test system: Ky. bluegrass; experiment: Test C pre-emergence on Fallsington silt loam soil; type: in vivo, Kentucky bluegrass; settings: 0.03 kg/ha, 28 days
Source text: as §1, with “The treated and untreated pots were promptly watered with approximatley 4 mm of simultated rainfall and then held in a greenhouse for several weeks. Visual weed and crop response ratings were made 28 days after treatment utilizing the rating system as described above for Test A. The data are given in Table C.” left out

[10] = test system: Peanut; experiment: Test C pre-emergence on Fallsington silt loam soil; type: in vivo, peanuts; settings: 0.03 kg/ha, 28 days
Source text: as §1, with “The treated and untreated pots were promptly watered with approximatley 4 mm of simultated rainfall and then held in a greenhouse for several weeks. Visual weed and crop response ratings were made 28 days after treatment utilizing the rating system as described above for Test A. The data are given in Table C.” left out

[11] = test system: Blackgrass; experiment: Test D pre-/post-emergence weed control in cereals; type: in vivo, Alopecurus myosuroides; settings: 0.015 kg/ha, 20 days
Source text: Two ten-inch in diameter plastic pans lined with polyethylene liners were filled with prepared Fallsington slit loam soil. One pan was planted with seeds of wheat (Triticum aestivum), barley (Hordeum vulgarel, wild oats (Avena fatua), downy brome (Bromus tectorum), cheatgrass (Bromus secalinus), blackgrass (Alopecurus myosuroides), annual bluegrass (Poa annual, green foxtail (Setaria viridis), quack grass (Agropyron repens), Italian ryegrass (Lolium multiflorum) and ripgut brome (Bromus rigidus). The other pan was planted with seeds of Russian thistle (Salsola kali), tansy mustard (Descuraina pinnata), smartweed (Polygonum pensylvanicum), tumble mustard (Sisymbrium altissium) kochia (Kochia scoparia), shepherd's purse (Capsella bursa-pastoris), Matricaria inodora, black nightshade (Solanum nigrum), yellow rocket (Barbarea vulgaris), wild mustard (Brassica kaber) and wild buckwheat (Polygonum convolvulus). The above two pans were treated pre-emergence. At the same time two pans in which the above plant species were growing were treated post-emergence. […]
The compounds applied were diluted with a non-phytotoxic solvent and sprayed over-the-top of the pans. […] The recorded data, presented in Table D, indicate that certain compounds from within the scope of the invention have utility for pre- and/or post-emergence weed control in cereal crops such as wheat and barley.

[12] = test system: Annual Bluegrass; experiment: Test D pre-/post-emergence weed control in cereals; type: in vivo, Poa annual; settings: 20 days
Source text: (§2) Two ten-inch in diameter plastic pans lined with polyethylene liners were filled with prepared Fallsington slit loam soil. One pan was planted with seeds of wheat (Triticum aestivum), barley (Hordeum vulgarel, wild oats (Avena fatua), downy brome (Bromus tectorum), cheatgrass (Bromus secalinus), blackgrass (Alopecurus myosuroides), annual bluegrass (Poa annual, green foxtail (Setaria viridis), quack grass (Agropyron repens), Italian ryegrass (Lolium multiflorum) and ripgut brome (Bromus rigidus). The other pan was planted with seeds of Russian thistle (Salsola kali), tansy mustard (Descuraina pinnata), smartweed (Polygonum pensylvanicum), tumble mustard (Sisymbrium altissium) kochia (Kochia scoparia), shepherd's purse (Capsella bursa-pastoris), Matricaria inodora, black nightshade (Solanum nigrum), yellow rocket (Barbarea vulgaris), wild mustard (Brassica kaber) and wild buckwheat (Polygonum convolvulus). The above two pans were treated pre-emergence. At the same time two pans in which the above plant species were growing were treated post-emergence. Plant height at the time of treatment ranged from 1-15 cm depending on plant species.
(§3) The compounds applied were diluted with a non-phytotoxic solvent and sprayed over-the-top of the pans. An untreated control and a solvent alone control were included for comparison. All treatments were maintained in the greenhouse for 20 days at which time the treatments were compared to the controls and the effects visually rated. The recorded data, presented in Table D, indicate that certain compounds from within the scope of the invention have utility for pre- and/or post-emergence weed control in cereal crops such as wheat and barley.

[13] = test system: Italian Ryegrass; experiment: Test D pre-/post-emergence weed control in cereals; type: in vivo, Lolium multiflorum; settings: 20 days
Source text: as §2, §3

[14] = test system: rice and corn; experiment: Crop selectivity statement (greenhouse tests); type: in vivo; settings: summary statement
Source text: (§4) The activity of the compounds of formula I was investigated in a number of greenhouse tests.

[15] = test system: Kochia; experiment: Test D pre-/post-emergence weed control in cereals; type: in vivo, Kochia scoparia; settings: 20 days
Source text: as §2, §3

[16] = test system: Wheat; experiment: Test D pre-/post-emergence weed control in cereals; type: in vivo, Triticum aestivum; settings: 20 days
Source text: as §2, §3

[17] = test system: Ripgut Brome; experiment: Test D pre-/post-emergence weed control in cereals; type: in vivo, Bromus rigidus; settings: 20 days
Source text: as §2, §3

[18] = test system: Wild Mustard; experiment: Test D pre-/post-emergence weed control in cereals; type: in vivo, Brassica kaber; settings: 20 days
Source text: as §2, §3

[19] = test system: Quackgrass; experiment: Test D pre-/post-emergence weed control in cereals; type: in vivo, Agropyron repens; settings: 20 days
Source text: as §2, §3

[20] = test system: Jimsonweed; experiment: Test G broadleaf herbicidal properties, overall spray; type: in vivo; settings: 0.015 kg/ha, 22 days after treatment
Protocol: (§5) Approximately 12 soybean plants were grown in a 25 cm. diameter plastic pot. In another pot of equal size the following broadleaf plant species were grown: sugarbeets, velvetleaf, Sesbania, Cassia, mustard, morningglory, alfalfa, jimsonweed, and cocklebur. The plant foliage and surrounding soil were treated with the test chemical dissolved in a non-phytotoxic solvent as an overall spray at the rate of 0.015 kg/ha, when the plants were 17 days old. Visual ratings of herbicidal effects were made 22 days after treatment utilizing the rating system described for Test A.

[21] = test system: Sugarbeets; experiment: as above; type: in vivo; settings: 0.015 kg/ha, 22 days after treatment
Protocol: as §5

[22] = test system: Mustard; experiment: as above; type: in vivo; settings: 0.015 kg/ha, 22 days after treatment
Protocol: as §5

[23] = test system: soybeams; experiment: Crop selectivity statement (greenhouse tests); type: in vivo; settings: summary statement
Source text: as §4

SMILES: COc1cc(OC)nc(NC(=O)NS(=O)(=O)c2ccccc2OS(C)(=O)=O)n1 [Compound 1, N-[(4,6-Dimethoxypyrimidin-2-yl)aminocarbonyl]-2-hydroxybenzenesulfonamide, methanesulfonate]
- Grasses response rating ([1]; 0.0035 kg/ha): 0
- Grasses response rating ([1]; 0.0075 kg/ha): 0
- Grasses response rating ([1]; 0.015 kg/ha): 2G
- Bean response rating [2]: 0
- Flax response rating [3]: 6G
- Wheat response rating [4]: 2G
- Rice response rating [5]: 6G
- Barley response rating [6]: 3G
- Tomato response rating [7]: 4G
- Sunflower response rating [8]: 5G
- Ky. bluegrass response rating [9]: 7G
- Peanut response rating [10]: 6G

SMILES: CCCS(=O)(=O)Oc1ccccc1S(=O)(=O)NC(=O)Nc1nc(OC)cc(OC)n1 [Compound 36, N-[(4,6-dimethoxypropimidin-2-yl)aminocarbonyl]-2-hydroxybenzenesulfonamide, 1-propanesulfonate]
- Blackgrass response rating ([11]; Post-Emergence): 2G
- Blackgrass response rating ([11]; Pre-Emergence): 6G
- Annual Bluegrass response rating ([12]; Post-Emergence, 0.015 kg/ha): 2G
- Annual Bluegrass response rating ([12]; Post-Emergence, 0.06 kg/ha): 3G
- Annual Bluegrass response rating ([12]; Pre-Emergence, 0.015 kg/ha): 6G
- Italian Ryegrass response rating ([13]; Post-Emergence, 0.015 kg/ha): 0
- Italian Ryegrass response rating ([13]; Post-Emergence, 0.06 kg/ha): 0
- Italian Ryegrass response rating ([13]; Pre-Emergence, 0.015 kg/ha): 1G
- Italian Ryegrass response rating ([13]; Pre-Emergence, 0.06 kg/ha): 3G
- selectivity on rice and corn [14]: shows selectivity on rice and corn
- Kochia response rating ([15]; Post-Emergence, 0.015 kg/ha): 0
- Kochia response rating ([15]; Post-Emergence, 0.06 kg/ha): 0
- Kochia response rating ([15]; Pre-Emergence, 0.015 kg/ha): 0
- Wheat response rating ([16]; Post-Emergence, 0.015 kg/ha): 0
- Wheat response rating ([16]; Post-Emergence, 0.06 kg/ha): 0
- Wheat response rating ([16]; Pre-Emergence, 0.015 kg/ha): 0
- Wheat response rating ([16]; Pre-Emergence, 0.06 kg/ha): 0
- Ripgut Brome response rating ([17]; Post-Emergence, 0.015 kg/ha): 0
- Ripgut Brome response rating ([17]; Post-Emergence, 0.06 kg/ha): 2G
- Ripgut Brome response rating ([17]; Pre-Emergence, 0.015 kg/ha): 2G
- Wild Mustard response rating ([18]; Post-Emergence, 0.015 kg/ha): 10C
- Wild Mustard response rating ([18]; Post-Emergence, 0.06 kg/ha): 10C
- Wild Mustard response rating ([18]; Pre-Emergence, 0.06 kg/ha): 10C
- Quackgrass response rating ([19]; Post-Emergence, 0.015 kg/ha): 0
- Quackgrass response rating ([19]; Post-Emergence, 0.06 kg/ha): 0
- Quackgrass response rating ([19]; Pre-Emergence, 0.015 kg/ha): 0
- Quackgrass response rating ([19]; Pre-Emergence, 0.06 kg/ha): 2G

SMILES: CCCS(=O)(=O)Oc1ccccc1S(=O)(=O)NC(=O)Nc1nc(C)nc(OC)n1 [Compound 39, 2-hydroxy-N-[(4-methoxy-6-methyl-1,3,5-triazin-2-yl)aminocarbonyl]benzenesulfonamide, 1-propanesulfonate]
- Jimsonweed response rating [20]: 0
- Sugarbeets response rating [21]: 9G
- Mustard response rating [22]: 10C
- selectivity on soybeams [23]: shows selectivity on soybeams
